Data on 19 molecules can be found in patent US10745392B2, “Benzenesulfonamide compounds and their use as therapeutic agents” (Xenon Pharmaceuticals Inc., priority 2018, dated 2020).

One may read the IC50 as the concentration needed to halve the response being measured.

The target in one data set is NaV1.1 (Homo sapiens (Human), UniProt P35498). Nature of the data set: Sodium Influx Assay (Flux) NaV1.1. Type of data set: cell-based. To be noted: Trex HEK293 cells, ANG2 dye, inhibition of sodium ion influx.
For the next data set, the target named is NaV1.6 (Homo sapiens (Human), UniProt Q9UQD0). Put plainly: Sodium Influx Assay (Flux) NaV1.6. Type of data set: cell-based. To be noted: Trex HEK293 cells, ANG2 dye, inhibition of sodium ion influx.
For data set [1], the target named is T1, NaV1.5 (Homo sapiens (Human), UniProt Q14524). Nature of the data set: Sodium Influx Assay (Flux) NaV1.5.
Data set [2] addresses T1, NaV1.5.
Where [3] appears, read: read-out: Flux NaV1.5 IC50, Trex HEK293 cells, ANG2 dye, inhibition of sodium ion influx.

Like-named read-outs stand apart in the source and are kept apart here.

T1 sequence (Q14524 other isoform, or with tags, fused parts or gaps): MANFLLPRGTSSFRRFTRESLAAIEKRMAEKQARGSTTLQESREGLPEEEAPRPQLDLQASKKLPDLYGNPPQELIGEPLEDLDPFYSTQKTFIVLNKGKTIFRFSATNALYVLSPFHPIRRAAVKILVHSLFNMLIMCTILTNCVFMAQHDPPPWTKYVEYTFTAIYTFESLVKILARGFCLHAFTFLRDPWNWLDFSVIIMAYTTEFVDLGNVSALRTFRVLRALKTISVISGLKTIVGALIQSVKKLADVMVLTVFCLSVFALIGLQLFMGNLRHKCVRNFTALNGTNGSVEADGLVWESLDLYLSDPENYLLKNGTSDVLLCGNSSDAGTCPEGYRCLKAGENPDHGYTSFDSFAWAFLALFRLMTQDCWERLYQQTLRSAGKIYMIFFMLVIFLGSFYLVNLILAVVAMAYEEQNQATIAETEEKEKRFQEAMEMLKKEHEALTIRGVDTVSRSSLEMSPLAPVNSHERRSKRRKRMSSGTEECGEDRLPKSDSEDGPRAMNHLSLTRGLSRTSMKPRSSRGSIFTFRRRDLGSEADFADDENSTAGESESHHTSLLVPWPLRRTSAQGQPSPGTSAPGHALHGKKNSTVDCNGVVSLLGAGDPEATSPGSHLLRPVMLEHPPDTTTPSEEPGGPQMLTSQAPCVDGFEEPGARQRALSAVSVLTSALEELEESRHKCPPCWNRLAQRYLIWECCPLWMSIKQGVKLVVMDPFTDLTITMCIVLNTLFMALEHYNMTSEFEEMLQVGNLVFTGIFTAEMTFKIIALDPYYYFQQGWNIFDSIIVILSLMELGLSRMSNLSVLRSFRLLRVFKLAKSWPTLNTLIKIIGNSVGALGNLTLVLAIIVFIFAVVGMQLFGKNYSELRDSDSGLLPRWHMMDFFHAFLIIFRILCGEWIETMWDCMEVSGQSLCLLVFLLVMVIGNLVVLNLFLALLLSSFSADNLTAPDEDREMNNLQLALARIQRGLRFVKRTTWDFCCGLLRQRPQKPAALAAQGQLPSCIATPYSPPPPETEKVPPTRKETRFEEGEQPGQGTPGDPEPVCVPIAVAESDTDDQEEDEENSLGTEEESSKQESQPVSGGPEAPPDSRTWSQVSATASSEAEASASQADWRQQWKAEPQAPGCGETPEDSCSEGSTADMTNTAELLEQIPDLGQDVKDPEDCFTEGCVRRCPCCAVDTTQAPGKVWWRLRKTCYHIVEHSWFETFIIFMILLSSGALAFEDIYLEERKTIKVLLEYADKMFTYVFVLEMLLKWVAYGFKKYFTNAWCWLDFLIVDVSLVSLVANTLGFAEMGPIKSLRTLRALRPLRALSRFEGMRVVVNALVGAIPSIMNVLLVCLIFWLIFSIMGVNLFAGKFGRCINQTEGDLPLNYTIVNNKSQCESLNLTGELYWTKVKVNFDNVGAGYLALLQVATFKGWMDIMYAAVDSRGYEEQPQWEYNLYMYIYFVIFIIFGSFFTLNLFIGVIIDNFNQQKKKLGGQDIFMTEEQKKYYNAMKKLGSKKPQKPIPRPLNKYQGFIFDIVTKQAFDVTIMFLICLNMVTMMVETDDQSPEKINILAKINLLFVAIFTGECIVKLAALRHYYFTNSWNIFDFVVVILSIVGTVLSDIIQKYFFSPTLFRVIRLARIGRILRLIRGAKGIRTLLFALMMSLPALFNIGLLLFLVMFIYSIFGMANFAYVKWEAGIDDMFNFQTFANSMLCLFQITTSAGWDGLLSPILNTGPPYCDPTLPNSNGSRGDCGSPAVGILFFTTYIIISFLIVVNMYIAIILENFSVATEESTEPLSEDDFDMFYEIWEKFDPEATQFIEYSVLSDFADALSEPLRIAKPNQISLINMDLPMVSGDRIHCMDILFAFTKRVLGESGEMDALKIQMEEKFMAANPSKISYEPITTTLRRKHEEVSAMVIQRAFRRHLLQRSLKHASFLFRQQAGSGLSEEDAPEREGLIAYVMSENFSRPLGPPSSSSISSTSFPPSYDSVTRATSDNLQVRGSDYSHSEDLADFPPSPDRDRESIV

Turning to `CC(C)Oc1ccc(F)c(CNc2cc(F)c(S(=O)(=O)Nc3cscn3)c(F)c2)c1CN(C)C(C)C` [Example 8, 2,6-difluoro-4-((6-fluoro-3-isopropoxy-2-((isopropyl(methyl)amino)methyl)benzyl)amino)-N-(thiazol-4-yl)benzenesulfonamide], the IC50 against NaV1.1 came to 28 µM; against NaV1.6, 0.026 µM; on NaV1.5 [1] (setting [3]), 11.1 µM.
The like results for `COc1ccc(F)c(CNc2ccc(S(=O)(=O)Nc3cscn3)c(F)c2F)c1CN(C)C(C)C` [Example 16, 2,3-difluoro-4-((6-fluoro-2-((isopropyl(methyl)amino)methyl)-3-methoxybenzyl)amino)-N-(thiazol-4-yl)benzenesulfonamide] were, in that order, above 30 µM, 0.031 µM and 9.46 µM.
Regarding `O=S(=O)(Nc1ccsn1)c1c(F)cc(NCc2c(F)cccc2CN2C3CCC2CC3)cc1F` [Example 1, 4-((2-((7-azabicyclo[2.2.1]heptan-7-yl)methyl)-6-fluorobenzyl)amino)-2,6-difluoro-N-(isothiazol-3-yl)benzenesulfonamide], the IC50 against NaV1.1 was 9.6 µM; on NaV1.5 [2], above 30 µM; against NaV1.6 it was 0.015 µM.
Regarding `COc1ccc(F)c(CNc2cc(F)c(S(=O)(=O)Nc3cscn3)c(F)c2)c1CN(C)C(C)C` [Example 2, 2,6-difluoro-4-((6-fluoro-2-((isopropyl(methyl)amino)methyl)-3-methoxybenzyl)amino)-N-(thiazol-4-yl)benzenesulfonamide], the IC50 at NaV1.1 is 27.5 µM; at NaV1.6, 0.027 µM; on NaV1.5 [1] (setting [3]) it was 28.3 µM.
As for `COc1ccc(F)c(CNc2cc(F)c(S(=O)(=O)Nc3cscn3)c(F)c2)c1CN1C2CCC1CC2` [Example 11, 4-((2-((7-azabicyclo[2.2.1]heptan-7-yl)methyl)-6-fluoro-3-methoxybenzyl)amino)-2,6-difluoro-N-(thiazol-4-yl)benzenesulfonamide 2,2,2-trifluoroacetate], the values for the IC50 against NaV1.1, against NaV1.5 [2] and against NaV1.6 were 5.91 µM, 27.5 µM and 0.002 µM, respectively.
The corresponding values for `O=S(=O)(Nc1ccsn1)c1ccc(NCc2c(F)cccc2CN2C3CCC2CC3)c(F)c1F` [Example 13, 4-((2-((7-azabicyclo[2.2.1]heptan-7-yl)methyl)-6-fluorobenzyl)amino)-2,3-difluoro-N-(isothiazol-3-yl)benzenesulfonamide 2,2,2-trifluoroacetate] are 23.7 µM, above 30 µM and 0.27 µM.
In the case of `CC(c1c(F)ccc(F)c1CNc1cc(F)c(S(=O)(=O)Nc2cscn2)c(F)c1)N1C2CCC1CC2` (stereo not drawn) [Example 14, 4-((2-(1-(7-azabicyclo[2.2.1]heptan-7-yl)ethyl)-3,6-difluorobenzyl)amino)-2,6-difluoro-N-(thiazol-4-yl)benzenesulfonamide 2,2,2-trifluoroacetate], the IC50 at NaV1.1 is above 30 µM; against NaV1.5 [2], 12.8 µM; on NaV1.6, 0.653 µM.
With `O=S(=O)(Nc1cscn1)c1c(F)cc(NCc2c(F)ccc(F)c2CN2C3CCC2CC3)cc1F` [Example 10, 4-((2-((7-azabicyclo[2.2.1]heptan-7-yl)methyl)-3,6-difluorobenzyl)amino)-2,6-difluoro-N-(thiazol-4-yl)benzenesulfonamide], the IC50 at NaV1.1 was found to be 7.93 µM; at NaV1.5 [2], 25.4 µM; against NaV1.6 it was 0.028 µM.
As to `COc1ccc(F)c(CNc2cc(F)c(S(=O)(=O)Nc3cscn3)cc2C)c1CN(C)C(C)C` [Example 18, 2-fluoro-4-((6-fluoro-2-((isopropyl(methyl)amino)methyl)-3-methoxybenzyl)amino)-5-methyl-N-(thiazol-4-yl)benzenesulfonamide 2,2,2-trifluoroacetate], the IC50 at NaV1.1 is above 30 µM; on NaV1.6, 0.016 µM; on NaV1.5 [1] (setting [3]), 11.8 µM.
Turning to `Cc1c(NCc2c(F)cccc2CN2C3CCC2CC3)cc(F)c(S(=O)(=O)Nc2ccon2)c1F` [Example 4, 4-((2-((7-azabicyclo[2.2.1]heptan-7-yl)methyl)-6-fluorobenzyl)amino)-2,6-difluoro-N-(isoxazol-3-yl)-3-methylbenzenesulfonamide], the IC50 on NaV1.1 was 17 µM; on NaV1.5 [2], above 30 µM; on NaV1.6, 0.047 µM.
As for `COc1ccc(F)c(CNc2ccc(S(=O)(=O)Nc3cscn3)c(F)c2F)c1CN1C2CCC1CC2` [Example 12, 4-((2-((7-azabicyclo[2.2.1]heptan-7-yl)methyl)-6-fluoro-3-methoxybenzyl)amino)-2,3-difluoro-N-(thiazol-4-yl)benzenesulfonamide 2,2,2-trifluoroacetate], the IC50 is above 30 µM against NaV1.1, above 30 µM against NaV1.5 [2] and 0.054 µM against NaV1.6.
As to `O=S(=O)(Nc1cscn1)c1ccc(NCc2c(F)cccc2CN2C3CCC2CC3)c(F)c1F` [Example 3, 4-((2-((7-azabicyclo[2.2.1]heptan-7-yl)methyl)-6-fluorobenzyl)amino)-2,3-difluoro-N-(thiazol-4-yl)benzenesulfonamide], the IC50 on NaV1.1 is above 30 µM; against NaV1.5 [2] it was above 30 µM; at NaV1.6, 0.142 µM.
As to `O=S(=O)(Nc1cscn1)c1ccc(NCc2c(F)cccc2CN2C3CCC2CC3)c(Cl)c1F` [Example 6, 4-((2-((7-azabicyclo[2.2.1]heptan-7-yl)methyl)-6-fluorobenzyl)amino)-3-chloro-2-fluoro-N-(thiazol-4-yl)benzenesulfonamide 2,2,2-trifluoroacetate], the IC50 stood at 5.23 µM against NaV1.1, 15.3 µM at NaV1.5 [2] and 0.095 µM against NaV1.6.
The corresponding values for `Cc1c(NCc2c(F)cccc2CN2C3CCC2CC3)ccc(S(=O)(=O)Nc2cscn2)c1F` [Example 7, 4-((2-((7-azabicyclo[2.2.1]heptan-7-yl)methyl)-6-fluorobenzyl)amino)-2-fluoro-3-methyl-N-(thiazol-4-yl)benzenesulfonamide 2,2,2-trifluoroacetate] are 7.44 µM, 21.3 µM and 0.181 µM.
On to `O=S(=O)(Nc1cscn1)c1c(F)cc(NCc2c(F)cccc2CN2C3CCC2CC3)cc1F` [Example 9, 4-((2-((7-azabicyclo[2.2.1]heptan-7-yl)methyl)-6-fluorobenzyl)amino)-2,6-difluoro-N-(thiazol-4-yl)benzenesulfonamide 2,2,2-trifluoroacetate], for which the IC50 was 7.84 µM against NaV1.1, 20.4 µM at NaV1.5 [2] and 0.026 µM at NaV1.6.
On to `COc1ccc(F)c(CNc2cc(F)c(S(=O)(=O)Nc3cscn3)cc2Cl)c1CN(C)C(C)C` [Example 17, 5-chloro-2-fluoro-4-((6-fluoro-2-((isopropyl(methyl)amino)methyl)-3-methoxybenzyl)amino)-N-(thiazol-4-yl)benzenesulfonamide 2,2,2-trifluoroacetate], for which the values for the IC50 on NaV1.1, on NaV1.6 and at NaV1.5 [1] (setting [3]) were above 30 µM, 0.012 µM and 16.3 µM, respectively.
In the case of `C[C@H](c1c(F)ccc(F)c1CNc1cc(F)c(S(=O)(=O)Nc2cscn2)c(F)c1)N1C2CCC1CC2` (single isomer, unassigned) [Example 15b], the IC50 against NaV1.1 is above 30 µM; at NaV1.6, 0.821 µM; against NaV1.5 [1], above 30 µM.
As for `C[C@@H](c1c(F)ccc(F)c1CNc1cc(F)c(S(=O)(=O)Nc2cscn2)c(F)c1)N1C2CCC1CC2` (single isomer, unassigned) [Example 15a], the values for the IC50 on NaV1.1, against NaV1.6 and on NaV1.5 [1] were above 30 µM, 0.53 µM and above 30 µM, respectively.
`Cc1c(NCc2c(F)cccc2CN2C3CCC2CC3)ccc(S(=O)(=O)Nc2ccon2)c1F` [Example 5, 4-((2-((7-azabicyclo[2.2.1]heptan-7-yl)methyl)-6-fluorobenzyl)amino)-2-fluoro-N-(isoxazol-3-yl)-3-methylbenzenesulfonamide 2,2,2-trifluoroacetate]: the IC50 at NaV1.1 is above 30 µM; against NaV1.5 [2], above 30 µM; at NaV1.6 it was 0.617 µM.
